Activity calls are given as the source filed them.
How the values were obtained:
[1] = Late stage counterscreen results from the probe development effort to identify activators of signal transducer and activator of transcription 1 (STAT1): luminescence-based cell-based dose response assay to identify cytotoxic compounds.; format: functional
[2] = biological target: Induced myeloid leukemia cell differentiation protein Mcl-1 (Homo sapiens, UniProt Q07820); format: functional
[3] = biological target: T1, Zinc finger protein mex-5 (Caenorhabditis elegans, UniProt Q9XUB2); assay: MEX-5/TCR-2 RNA interaction inhibitors, dose response, biochemical, C. elegans, fluorescence polarization (AID 1960)
T1 sequence (Q9XUB2 whole entry): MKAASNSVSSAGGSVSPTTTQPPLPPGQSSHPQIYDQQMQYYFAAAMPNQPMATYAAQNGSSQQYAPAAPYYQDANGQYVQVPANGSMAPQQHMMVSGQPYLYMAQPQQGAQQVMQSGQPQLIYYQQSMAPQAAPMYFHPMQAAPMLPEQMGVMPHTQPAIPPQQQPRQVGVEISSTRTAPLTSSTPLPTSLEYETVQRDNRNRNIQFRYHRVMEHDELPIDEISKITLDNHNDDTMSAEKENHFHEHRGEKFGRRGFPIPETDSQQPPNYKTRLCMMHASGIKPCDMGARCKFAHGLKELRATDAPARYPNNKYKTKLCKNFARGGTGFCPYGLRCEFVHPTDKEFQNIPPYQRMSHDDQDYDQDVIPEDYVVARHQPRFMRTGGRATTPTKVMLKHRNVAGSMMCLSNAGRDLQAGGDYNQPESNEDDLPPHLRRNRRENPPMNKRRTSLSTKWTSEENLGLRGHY

Ephrin type-A receptor 4 = Ephrin type-A receptor 4 (Mus musculus, UniProt Q03137); assay: inhibitors of EphA4 binding to KYL peptide, primary screen, biochemical, colorimetric, mouse EphA4 (AID 689); format: functional
[4] = biological target: T2, RNA-binding protein pos-1 (Caenorhabditis elegans, UniProt G5EF15); assay: inhibitors of POS-1/mex-3 RNA binding, dose response, biochemical, fluorescence polarization (AID 1964);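 note: purified POS-1 fused to maltose binding protein made in E. coli; potency of compounds blocking POS-1 binding to fluorescent RNA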
T2 sequence (G5EF15 whole entry): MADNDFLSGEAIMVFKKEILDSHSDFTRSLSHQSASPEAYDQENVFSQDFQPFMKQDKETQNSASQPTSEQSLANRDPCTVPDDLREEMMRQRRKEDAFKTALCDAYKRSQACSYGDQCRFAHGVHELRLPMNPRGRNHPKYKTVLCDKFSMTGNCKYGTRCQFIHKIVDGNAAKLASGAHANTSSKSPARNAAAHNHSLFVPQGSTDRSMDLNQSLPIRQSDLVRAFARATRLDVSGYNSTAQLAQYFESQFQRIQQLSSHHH

Aminopeptidase N = biological target: T3, Aminopeptidase N (Plasmodium falciparum FcB1/Columbia, UniProt O96935); assay: P. falciparum M1AAP inhibitors, biochemical, fluorogenic H-Leu-NHMec substrate, 1536-well (AID 1445); design: species or system Plasmodium falciparum 3D7, 3D7
T3 sequence (O96935 whole entry): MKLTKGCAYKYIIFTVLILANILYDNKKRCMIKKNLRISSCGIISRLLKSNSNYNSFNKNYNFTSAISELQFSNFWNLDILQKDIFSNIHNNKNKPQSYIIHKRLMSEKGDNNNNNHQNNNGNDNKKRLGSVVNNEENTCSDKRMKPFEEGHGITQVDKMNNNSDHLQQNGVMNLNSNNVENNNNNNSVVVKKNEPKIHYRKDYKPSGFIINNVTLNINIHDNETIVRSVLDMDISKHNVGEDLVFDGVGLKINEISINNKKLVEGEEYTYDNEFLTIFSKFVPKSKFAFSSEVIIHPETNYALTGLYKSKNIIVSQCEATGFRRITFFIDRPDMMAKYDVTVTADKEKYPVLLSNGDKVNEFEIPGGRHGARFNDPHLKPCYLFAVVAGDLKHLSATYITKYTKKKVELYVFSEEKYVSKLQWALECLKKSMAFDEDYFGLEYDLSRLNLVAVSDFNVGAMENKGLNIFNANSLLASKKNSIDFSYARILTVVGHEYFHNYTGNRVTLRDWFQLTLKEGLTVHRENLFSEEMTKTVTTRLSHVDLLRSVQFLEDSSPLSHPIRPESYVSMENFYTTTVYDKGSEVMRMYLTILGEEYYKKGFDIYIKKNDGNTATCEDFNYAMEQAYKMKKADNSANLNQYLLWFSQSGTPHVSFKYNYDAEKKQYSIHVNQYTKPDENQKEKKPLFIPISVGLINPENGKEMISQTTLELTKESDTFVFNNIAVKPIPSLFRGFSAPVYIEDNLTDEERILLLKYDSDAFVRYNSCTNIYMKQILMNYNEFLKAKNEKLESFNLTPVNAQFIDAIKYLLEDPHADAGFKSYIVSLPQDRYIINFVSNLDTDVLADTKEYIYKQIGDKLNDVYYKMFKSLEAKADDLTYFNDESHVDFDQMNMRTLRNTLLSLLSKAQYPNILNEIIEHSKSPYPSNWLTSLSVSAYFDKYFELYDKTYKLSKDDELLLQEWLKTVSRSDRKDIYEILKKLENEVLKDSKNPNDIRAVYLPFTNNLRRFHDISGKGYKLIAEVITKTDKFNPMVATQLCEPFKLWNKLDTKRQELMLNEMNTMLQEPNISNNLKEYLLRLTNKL

[5] = biological target: Eukaryotic translation initiation factor 4E (Mus musculus, UniProt P63073); assay: eIF4E–eIF4G protein interaction inhibitors, dose response, biochemical, TR-FRET (AID 855); format: functional;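 note: potency for disrupting eIF4E binding to eIF4GI seen as loss of FRET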
Chain of Eukaryotic translation initiation factor 4E (P63073 whole entry): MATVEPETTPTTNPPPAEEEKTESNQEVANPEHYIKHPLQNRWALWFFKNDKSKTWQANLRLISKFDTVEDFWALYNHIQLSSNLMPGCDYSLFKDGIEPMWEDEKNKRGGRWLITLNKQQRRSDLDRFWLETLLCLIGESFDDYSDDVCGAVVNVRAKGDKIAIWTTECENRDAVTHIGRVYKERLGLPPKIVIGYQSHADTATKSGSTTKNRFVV

[6] = THP-1 cell cytotoxicity, dose response, cytotoxicity control for non-replicating M. tuberculosis project (AID 489025); format: functional
[7] = HepG2 cell cytotoxicity, dose response, cytotoxicity control for Shn3 inhibitor project, CellTiter-Glo, cherry-picked (AID 624134); format: functional, cell-based
[8] = Shn3 3'UTR reporter inhibitors, dose response, cell-based, Clone20 osteoblasts, firefly luciferase, cherry-picked (AID 624132); format: functional;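 note: firefly luciferase luminescence from reporter carrying the Shn3 3'UTR in osteoblasts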
[9] = Vero E6 cell cytotoxicity, dose response, cytotoxicity control for non-replicating M. tuberculosis project, secondary assay (AID 492998); format: functional, VeroE6; details: Vero C1008
[10] = biological target: Sphingosine 1-phosphate receptor 2 (Homo sapiens, UniProt O95136); assay: Dose Response Cell Based Assay for Antagonists of the S1P2 Receptor. [Related pubchem assays: 856, 736 ]; format: functional
Chain of Sphingosine 1-phosphate receptor 2 (O95136 whole entry): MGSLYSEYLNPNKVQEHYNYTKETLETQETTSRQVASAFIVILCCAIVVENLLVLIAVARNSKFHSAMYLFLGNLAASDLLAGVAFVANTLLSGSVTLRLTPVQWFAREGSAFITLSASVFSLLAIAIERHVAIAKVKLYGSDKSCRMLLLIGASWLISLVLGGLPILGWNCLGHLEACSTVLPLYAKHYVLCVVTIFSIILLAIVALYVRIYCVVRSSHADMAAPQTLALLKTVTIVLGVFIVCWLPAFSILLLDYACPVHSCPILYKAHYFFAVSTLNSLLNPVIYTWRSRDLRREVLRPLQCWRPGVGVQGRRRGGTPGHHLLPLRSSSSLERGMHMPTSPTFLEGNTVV

[11] = control 3'UTR Renilla luciferase suppression, dose response, counter-screen for Shn3 inhibitor project, cell-based, Clone20-Shn3RL, cherry-picked (AID 624133); format: functional
[12] = cytotoxicity toward NIH3T3 fibroblasts, dose response, counter-screen, cell-based, ATP luminescence, mouse fibroblasts (AID 2010); format: functional;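 note: cells exposed to compound for about 90 hours before reading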
cells = format: functional
[13] = growth suppression of beta-catenin-knockout colon cells, dose response, cell-based, HCT116, human colon tumor (AID 1045); format: functional;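 note: HCT116 colon tumor cells with beta catenin knocked out; cells exposed to compound for 60 hours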
[14] = cytotoxicity in KRAS-transformed pancreatic duct cells, primary screen, cell-based, fluorescence, HTS (AID 431); format: functional; details: Homo sapiens;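 note: cell line used: HPDE-C7K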
[15] = growth suppression of PTEN-null colon cells, dose response, cell-based, HCT116 PTEN knockout (AID 1047); format: functional;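 note: HCT116 colon tumor cells with PTEN knocked out; cells exposed to compound for 60 hours before readout; potency for loss of cell viability measured by luminescence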
[16] = inhibitors of intracellular T. cruzi replication, confirmation, NIH3T3 host cells, beta-gal luminescence (AID 2044); format: functional, cell-based;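 note: intracellular parasites grown in NIH/3T3 mouse fibroblasts as host cells; luminescent beta-galactosidase reporter signal from transgenic T. cruzi replicating inside host cells; inhibitors lower the luminescence signal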
[17] = cytotoxicity in HPDE-C7 cells, cell-based, fluorescence, HTS (AID 430); format: functional; details: Homo sapiens
[18] = cytotoxicity in HEK-293T cells, dose response, cytotoxicity control for TCR NF-kB inhibitor project, luminescence, T-cell screen hits (AID 489026); format: functional, cell-based;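 note: cells exposed to compound about 14 hours before the viability readout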
[19] = biological target: Voltage-gated inwardly rectifying potassium channel KCNH2 (Homo sapiens, UniProt Q12809); assay: hERG protection from proarrhythmic block, potency, dose response, cell-based, thallium flux (AID 2121); format: ADME
Phospholipase A2 = Phospholipase A2 (Homo sapiens, UniProt P04054); format: functional;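 note: confirmatory dose-response counterscreen on phospholipase A2, testing hits that came from an ultra-high-throughput screen for ATG4B inhibitors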
Chain of Phospholipase A2 (P04054 whole entry): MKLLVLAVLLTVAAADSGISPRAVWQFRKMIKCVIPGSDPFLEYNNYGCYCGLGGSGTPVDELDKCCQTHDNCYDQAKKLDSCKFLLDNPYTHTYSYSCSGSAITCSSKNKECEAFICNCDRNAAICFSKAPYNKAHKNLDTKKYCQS

Vero [20] = assay: cells; format: functional; details: Chlorocebus sabaeus
Vero [21] = assay: cells; format: functional, cell-based; details: Chlorocebus sabaeus
Cysteine protease ATG4B = Cysteine protease ATG4B (Homo sapiens, UniProt Q9Y4P1); format: functional;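 note: Fluorescence-based dose-response confirmation assay measuring inhibition of ATG4B activity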
Chain of Cysteine protease ATG4B (Q9Y4P1 whole entry): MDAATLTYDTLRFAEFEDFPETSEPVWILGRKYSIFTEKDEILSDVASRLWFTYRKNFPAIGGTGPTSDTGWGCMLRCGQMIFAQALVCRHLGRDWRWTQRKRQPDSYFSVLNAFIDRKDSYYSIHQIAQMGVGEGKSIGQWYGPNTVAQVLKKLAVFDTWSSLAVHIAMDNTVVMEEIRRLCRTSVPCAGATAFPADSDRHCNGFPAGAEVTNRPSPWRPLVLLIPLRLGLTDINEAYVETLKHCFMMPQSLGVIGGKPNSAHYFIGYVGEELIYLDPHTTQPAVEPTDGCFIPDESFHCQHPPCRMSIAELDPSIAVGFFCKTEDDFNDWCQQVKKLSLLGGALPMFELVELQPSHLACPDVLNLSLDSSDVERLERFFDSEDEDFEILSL

[22] = biological target: Photoreceptor-specific nuclear receptor (Homo sapiens, UniProt Q9Y5X4); assay: NR2E3 inverse agonists, dose response, biochemical, TR-FRET (AID 463256); format: functional
Chain of Photoreceptor-specific nuclear receptor (Q9Y5X4 whole entry): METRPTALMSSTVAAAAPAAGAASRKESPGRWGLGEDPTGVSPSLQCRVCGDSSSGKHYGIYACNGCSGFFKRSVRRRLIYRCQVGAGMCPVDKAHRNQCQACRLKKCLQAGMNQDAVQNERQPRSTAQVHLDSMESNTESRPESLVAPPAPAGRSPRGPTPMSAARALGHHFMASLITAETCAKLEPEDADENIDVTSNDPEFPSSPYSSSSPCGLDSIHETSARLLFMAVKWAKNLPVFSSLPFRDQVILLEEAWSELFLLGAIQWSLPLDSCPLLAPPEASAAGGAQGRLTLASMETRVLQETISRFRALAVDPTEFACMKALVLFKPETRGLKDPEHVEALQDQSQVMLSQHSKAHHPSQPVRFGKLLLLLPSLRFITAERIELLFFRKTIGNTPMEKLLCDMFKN

[23] = biological target: Peroxisome proliferator-activated receptor gamma/Nuclear receptor corepressor 2 (Homo sapiens, UniProt P37231+Q9Y618); assay: Counterscreen for NR2E3 inverse agonists: TR-FRET-based biochemical high throughput dose response assay to identify inverse agonists of the interaction between peroxisome proliferator-activated receptor gamma (PPARg) and nuclear receptor co-repressor 2 (NCOR2).; format: functional
Chain of Peroxisome proliferator-activated receptor gamma/Nuclear receptor corepressor 2 (P37231 whole entry): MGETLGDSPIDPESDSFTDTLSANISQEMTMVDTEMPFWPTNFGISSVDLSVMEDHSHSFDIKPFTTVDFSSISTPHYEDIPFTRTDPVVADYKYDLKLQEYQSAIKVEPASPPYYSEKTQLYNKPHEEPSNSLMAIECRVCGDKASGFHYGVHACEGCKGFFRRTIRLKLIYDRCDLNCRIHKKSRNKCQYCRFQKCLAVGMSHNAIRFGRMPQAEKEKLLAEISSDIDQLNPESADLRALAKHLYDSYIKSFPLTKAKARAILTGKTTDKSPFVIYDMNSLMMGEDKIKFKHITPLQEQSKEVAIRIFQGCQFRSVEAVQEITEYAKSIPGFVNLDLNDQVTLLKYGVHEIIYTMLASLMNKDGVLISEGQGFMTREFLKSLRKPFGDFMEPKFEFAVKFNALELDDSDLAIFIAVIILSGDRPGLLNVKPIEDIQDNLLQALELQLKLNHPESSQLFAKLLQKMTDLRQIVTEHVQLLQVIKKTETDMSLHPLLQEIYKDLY
Chain of Peroxisome proliferator-activated receptor gamma/Nuclear receptor corepressor 2 (Q9Y618 whole entry): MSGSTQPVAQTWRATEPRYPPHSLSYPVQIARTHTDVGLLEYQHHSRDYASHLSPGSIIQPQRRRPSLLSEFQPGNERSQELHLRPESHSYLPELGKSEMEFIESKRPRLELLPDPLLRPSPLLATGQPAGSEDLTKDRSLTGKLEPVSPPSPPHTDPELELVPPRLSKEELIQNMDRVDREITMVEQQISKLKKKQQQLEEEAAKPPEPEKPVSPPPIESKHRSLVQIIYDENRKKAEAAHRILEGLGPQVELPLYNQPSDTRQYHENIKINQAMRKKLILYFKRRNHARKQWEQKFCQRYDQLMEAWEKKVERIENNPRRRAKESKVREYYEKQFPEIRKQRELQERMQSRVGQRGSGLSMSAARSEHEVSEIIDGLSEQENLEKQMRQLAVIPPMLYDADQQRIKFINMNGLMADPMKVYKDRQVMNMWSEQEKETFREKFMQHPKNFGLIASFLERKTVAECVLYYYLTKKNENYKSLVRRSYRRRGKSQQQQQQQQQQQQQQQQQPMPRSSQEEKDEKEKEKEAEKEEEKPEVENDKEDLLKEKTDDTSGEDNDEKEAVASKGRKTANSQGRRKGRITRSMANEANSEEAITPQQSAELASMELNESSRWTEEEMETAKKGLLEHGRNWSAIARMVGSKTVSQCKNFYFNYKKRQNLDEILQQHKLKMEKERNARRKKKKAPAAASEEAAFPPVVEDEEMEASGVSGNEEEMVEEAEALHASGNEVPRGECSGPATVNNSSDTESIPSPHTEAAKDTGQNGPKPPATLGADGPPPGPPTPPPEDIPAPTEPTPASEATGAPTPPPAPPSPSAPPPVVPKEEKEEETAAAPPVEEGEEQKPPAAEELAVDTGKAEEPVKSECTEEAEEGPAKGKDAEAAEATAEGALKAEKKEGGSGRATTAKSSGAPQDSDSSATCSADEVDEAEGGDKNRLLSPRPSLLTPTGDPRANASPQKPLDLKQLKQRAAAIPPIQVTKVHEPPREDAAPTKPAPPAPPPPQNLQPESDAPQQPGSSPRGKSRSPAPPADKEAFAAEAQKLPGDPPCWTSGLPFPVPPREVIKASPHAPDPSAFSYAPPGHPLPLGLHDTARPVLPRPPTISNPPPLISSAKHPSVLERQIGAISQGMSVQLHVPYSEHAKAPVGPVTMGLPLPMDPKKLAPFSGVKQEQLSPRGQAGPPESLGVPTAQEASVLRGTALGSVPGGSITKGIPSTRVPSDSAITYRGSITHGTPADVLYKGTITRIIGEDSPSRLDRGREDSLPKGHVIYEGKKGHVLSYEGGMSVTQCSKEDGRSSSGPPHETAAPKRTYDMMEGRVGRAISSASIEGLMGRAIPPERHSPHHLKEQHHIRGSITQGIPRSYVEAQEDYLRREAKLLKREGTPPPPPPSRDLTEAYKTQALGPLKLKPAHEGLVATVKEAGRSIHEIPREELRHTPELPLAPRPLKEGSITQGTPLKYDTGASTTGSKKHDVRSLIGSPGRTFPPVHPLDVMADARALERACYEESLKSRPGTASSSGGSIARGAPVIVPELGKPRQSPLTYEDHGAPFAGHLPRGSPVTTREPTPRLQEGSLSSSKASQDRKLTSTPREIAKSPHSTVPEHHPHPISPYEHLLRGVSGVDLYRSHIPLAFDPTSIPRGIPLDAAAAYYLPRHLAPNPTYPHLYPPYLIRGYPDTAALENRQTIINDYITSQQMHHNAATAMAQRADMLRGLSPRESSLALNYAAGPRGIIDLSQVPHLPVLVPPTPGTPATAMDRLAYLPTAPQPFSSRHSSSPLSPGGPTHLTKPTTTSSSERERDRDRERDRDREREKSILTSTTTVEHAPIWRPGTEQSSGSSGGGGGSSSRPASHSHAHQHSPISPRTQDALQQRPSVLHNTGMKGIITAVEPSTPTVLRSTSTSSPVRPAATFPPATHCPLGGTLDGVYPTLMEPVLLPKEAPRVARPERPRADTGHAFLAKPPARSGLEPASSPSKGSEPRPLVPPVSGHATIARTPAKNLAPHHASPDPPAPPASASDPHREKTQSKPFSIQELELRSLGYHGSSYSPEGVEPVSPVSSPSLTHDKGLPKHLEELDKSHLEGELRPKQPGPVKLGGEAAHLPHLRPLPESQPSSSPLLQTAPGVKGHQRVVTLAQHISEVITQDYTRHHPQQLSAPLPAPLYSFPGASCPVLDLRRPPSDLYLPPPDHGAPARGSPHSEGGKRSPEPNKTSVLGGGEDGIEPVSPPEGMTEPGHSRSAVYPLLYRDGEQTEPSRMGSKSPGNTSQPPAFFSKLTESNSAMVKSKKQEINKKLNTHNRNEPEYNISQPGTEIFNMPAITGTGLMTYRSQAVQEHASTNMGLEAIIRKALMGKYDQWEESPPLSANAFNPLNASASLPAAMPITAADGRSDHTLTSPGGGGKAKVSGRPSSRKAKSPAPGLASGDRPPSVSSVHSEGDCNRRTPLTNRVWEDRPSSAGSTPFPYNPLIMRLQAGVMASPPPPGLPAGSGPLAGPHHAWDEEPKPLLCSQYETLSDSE

Chain of Induced myeloid leukemia cell differentiation protein Mcl-1 (Q07820 whole entry): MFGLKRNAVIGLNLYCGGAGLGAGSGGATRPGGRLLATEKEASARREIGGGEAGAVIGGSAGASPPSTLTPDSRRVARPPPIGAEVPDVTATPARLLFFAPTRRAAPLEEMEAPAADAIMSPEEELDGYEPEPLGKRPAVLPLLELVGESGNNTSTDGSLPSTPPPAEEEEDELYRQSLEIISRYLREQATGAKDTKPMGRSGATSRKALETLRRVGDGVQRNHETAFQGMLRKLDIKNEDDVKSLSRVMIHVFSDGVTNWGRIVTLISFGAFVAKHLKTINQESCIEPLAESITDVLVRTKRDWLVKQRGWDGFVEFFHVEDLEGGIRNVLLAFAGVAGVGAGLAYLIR

Compound: CCOC(=O)/C(C#N)=C/c1cc(C)n(-c2ccccc2)c1C
- IC50 [1]: > 55.7 µM (not active)

Compound: CCOC(=O)c1cc(-c2ccc(/C=C3/C(=O)NC(=O)C(C#N)=C3C)o2)ccc1Cl
- IC50 [2]: 0.752 µM (active)
- EC50 [3]: 17.4 µM (active)
- IC50 (Ephrin type-A receptor 4): 2.53 µM (active)
- EC50 [4]: 19.9 µM (active)
- IC50 (Aminopeptidase N): 80.1 µM (active)
- IC50 [5]: 23.4 µM (active)

Compound: O=S1(=O)C=C(Sc2nc3cc(Cl)ccc3o2)c2ccccc21
- CC50 [6]: 8.54 µM (active)
- AC50 [7]: 18.4 µM (active)
- AC50 [8]: < 0.26 µM (active)
- CC50 [9]: 5.94 µM (active)
- IC50 [10]: 3.47 µM (active)
- AC50 [11]: 4.15 µM (active)
- EC50 [12]: 1.58 µM (active)
- IC50 (cells): 1.57 µM (active)
- EC50 [13]: 3.65 µM (active)
- EC50 [14]: 9.45 µM (active)
- EC50 [15]: 4.03 µM (active)
- EC50 [16]: 0.818 µM (active)
- EC50 [17]: 4.03 µM (active)
- IC50 [18]: 54.3 µM (inactive)

Compound: Cc1ccc(C(=O)CC(=O)c2cc(Cl)ccc2O)cc1
- EC50 [19]: 3.02 µM (active)
- IC50 (Phospholipase A2): 8 µM (active)
- CC50 (Vero [20]): 22.3 µM (active)
- IC50 (Vero [21]): 23.8 µM (active)
- IC50 (Cysteine protease ATG4B): 11.1 µM (active)

Compound: Cn1c(SCC(=O)c2ccc3c(c2)Cc2ccccc2-3)nnc1-c1ccccc1
- IC50 [22]: 3.82 µM (active)
- IC50 [23]: 4.12 µM (active)

Source: ChEMBL document CHEMBL1201862, “PubChem BioAssay data set” (2004)
